Broadly, the IC50 is the concentration that gives 50% inhibition.

Counter-ions that a name gives are not always drawn. Like-named read-outs stand apart in the source and are kept apart here.

The target in assay [1] is T1, And-1 protein fused to a luciferase reporter gene (Homo sapiens, UniProt O75717).
T1 sequence (O75717 1-1129): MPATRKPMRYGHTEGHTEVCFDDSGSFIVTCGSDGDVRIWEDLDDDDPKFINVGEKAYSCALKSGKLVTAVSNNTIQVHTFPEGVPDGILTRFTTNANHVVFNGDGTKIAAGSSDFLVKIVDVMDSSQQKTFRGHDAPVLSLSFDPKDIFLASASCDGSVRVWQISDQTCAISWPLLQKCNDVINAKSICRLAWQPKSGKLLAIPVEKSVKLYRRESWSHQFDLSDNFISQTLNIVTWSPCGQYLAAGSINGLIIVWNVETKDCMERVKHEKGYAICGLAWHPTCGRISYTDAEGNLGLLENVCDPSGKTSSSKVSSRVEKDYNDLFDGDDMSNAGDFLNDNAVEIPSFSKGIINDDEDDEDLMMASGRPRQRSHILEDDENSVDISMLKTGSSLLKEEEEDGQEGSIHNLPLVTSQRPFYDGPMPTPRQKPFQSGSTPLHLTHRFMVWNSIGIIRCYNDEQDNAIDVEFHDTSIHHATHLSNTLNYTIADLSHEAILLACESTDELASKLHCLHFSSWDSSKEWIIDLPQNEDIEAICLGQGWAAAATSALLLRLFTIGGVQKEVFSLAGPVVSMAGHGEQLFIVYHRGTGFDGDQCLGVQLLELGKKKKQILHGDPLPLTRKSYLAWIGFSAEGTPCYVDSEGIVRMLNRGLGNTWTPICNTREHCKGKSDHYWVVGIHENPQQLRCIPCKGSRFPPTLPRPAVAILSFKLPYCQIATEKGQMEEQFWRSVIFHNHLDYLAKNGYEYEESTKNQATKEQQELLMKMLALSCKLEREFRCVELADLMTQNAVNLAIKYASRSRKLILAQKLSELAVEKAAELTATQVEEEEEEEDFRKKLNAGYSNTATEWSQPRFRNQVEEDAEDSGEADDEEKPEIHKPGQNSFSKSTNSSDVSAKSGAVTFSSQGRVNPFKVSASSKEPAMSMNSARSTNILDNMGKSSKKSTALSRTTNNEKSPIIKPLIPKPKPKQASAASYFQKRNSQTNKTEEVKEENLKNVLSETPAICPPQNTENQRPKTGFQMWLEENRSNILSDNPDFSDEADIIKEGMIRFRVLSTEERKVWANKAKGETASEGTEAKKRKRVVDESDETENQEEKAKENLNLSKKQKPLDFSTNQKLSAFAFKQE
Kind of assay: quantitative HTS (qHTS) of LOPAC library in HEK293T-And-1-Luc cells (luciferase read-out of And-1 level). The format is cell-based. The following applies: HTS assay. An excerpt: To identify And-1 specific pharmacologic inhibitors, a high-throughput screening (HTS) assay was established to identify small molecules that can inhibit And-1 by inducing its degradation. For this assay, two stable cell lines, a HEK293T-And-1-Luc cell expressing And-1 protein fused to a luciferase reporter gene, and a HEK293T-Luc cell expressing luciferase only were generated (FIG. 13A). HEK293T-And-1-Luc cells allowed for assessment of And-1 protein levels by measuring luciferase activity in a high throughput manner.
A general note: qHTS replaces the single test concentration by a dilution series.

Another assay has as its system SREBP target gene SCD-1. The experiment in a line: RT-PCR detection of SCD-1 gene expression in AN3CA cells. It counts as cell-based, human. The following applies: 10 μM; for Relative mRNA expression of SCD-1: 48 h, DMSO = 1. On the procedure:
• 1. Experimental reagent • 2. The experimental steps are as follows: • 2.1 AN3CA cell recovery and culture (10% serum 1% double antibody in MEM medium); • 2.2 passages (passage at a ratio of 1:2); • 2.3 Place 6 well plates when the cell status is good, 5×10^5Well, culture overnight; • 2.4 adding medicine: diluting the final concentration of the drug with a culture medium to 10 μM, 2 mL/well; • 2.5 adding medicine for 48 h, and then extracting RNA; • 2.5.1 removing the culture medium, adding 0.5 mL/hole Trizol to lyse the cells, repeatedly blowing and beating the cells by a pipette after 5 min, completely lysing the cells, transferring the cells into a 1.5 mL EP tube without RNase, and standing the tube for 5 min; • 2.5.2 adding 200 µl chloroform, shaking rapidly, mixing, standing for 10 min 12000 rpm/15 min; • 2.5.3 carefully taking out the supernatant, transferring the supernatant into an EP tube, adding isopropanol with the same volume, reversing, uniformly mixing, standing for 10 min, and centrifuging at 12000 rpm/10 min; • 2.5.4 removing the supernatant, adding 1 mL of 75% ethanol for washing, centrifuging at 8000 rpm/5 min once, carefully removing the supernatant, standing at room temperature for 10 min to volatilize the ethanol, and dissolving the precipitate with 40 μL of DEPC treated water when the precipitate becomes transparent; • 2.5.5 RNA concentration was measured and DEPC-treated water was diluted to 100 ng/μL • 2.6 reverse transcription: Kit Takara (PrimeScript RT reagent Kit (Perfect Real Time)

In assay [2] the target is T2, And-1 (Homo sapiens, UniProt O75717).
T2 sequence (O75717 1-1129): T1 sequence (O75717 1-1129)
The experiment in a line: immunoblot analysis of And-1 expression in IGROV1 cells. It counts as cell-based. Set-up: endogenous in cells; host or cells: IGROV1 CR. The following applies: immunoblot, read-out: IC50 for inhibition of And-1 expression. The method, then: The high IC50 of resveratrol compromises its potential clinical application; therefore, resveratrol was used as a lead compound to screen 12 analogs of resveratrol for potent compounds that can inhibit And-1 (FIG. 14). […] To perform immunoblot analyses, cells were first treated with increasing concentrations of the 12 analogs. After treatment, the cells were harvested and then lysed with RIPA buffer protease inhibitor and phosphatase inhibitor cocktail. Protein concentration was determined by the BCA protein assay. Equal amounts of whole cell lysates were separated on sodium dodecyl sulfate polyacrylamide gel electrophoresis (SDS-PAGE) and transferred onto nitrocellulose membranes. Membranes were then incubated in blocking solution (5% non-fat milk in 20 mM TRIS-HCl, 150 mM NaCl, 0.1% Tween-20) (TBST), followed by incubation with the indicated antibodies at 4° C. overnight. The membranes were then washed in TBST and incubated with HRP-conjugated secondary antibodies for 1 hour at room temperature (21° C.±2° C.). Antibody detection was performed with an enhanced chemiluminescence reaction.

The target of assay [3] is T2, And-1. Kind of assay: inhibition of And-1 in OV90 CR cells. It counts as cell-based. Also noted: endogenous in cells. The following applies: inhibition of And-1, OV90 CR cells.
The target in assay [4] is T2, And-1. Kind of assay: inhibition of And-1 in IGROV1 CR cells. The format is cell-based. Also noted: endogenous in cells; host or cells: IGROV1 CR. The following applies: inhibition of And-1, IGROV1 CR cells.
The mark [5] stands for this setting: determination 1, read-out: IC50 (μM) 1.
[6] abbreviates: average of 1 and 2, read-out: IC50 (μM) average.
Setting [7] is: determination 2, read-out: IC50 (μM) 2.

`COc1cc2c(cc1O)CC[C@@H]1[C@@H]2CC[C@]2(C)[C@@H](O)CC[C@@H]12` [2-methoxyestradiol]: in assay [1] (setting [5]), the IC50 amounted to 1.67 µM. Further, the “IC50 (μM) 2” value in assay [1] (determination 2) was “inactive”.

Take `CC[C@@]1(O)C(=O)OCc2c1cc1n(c2=O)Cc2cc3ccccc3nc2-1` [(S)-(+)-Camptothecin]: the IC50 in assay [1] (setting [5]) worked out at 0.73 µM. The “IC50 (μM) 2” value in assay [1] (determination 2) was “inactive”.

As to `CC[n+]1c(/C=C/C=C2/N(C)c3ccccc3C2(C)C)sc2ccccc21` [AC-93253 iodide], the IC50 stood at 0.76 µM in assay [1] (setting [6]), 1.09 µM in assay [1] (setting [5]) and 0.44 µM in assay [1] (setting [7]).

As for `CNc1ccc2oc(C[C@H]3O[C@@]4(CC[C@H]3C)O[C@H]([C@H](C)C(=O)c3ccc[nH]3)[C@H](C)C[C@H]4C)nc2c1C(=O)O` [Calcimycin], the figures for the IC50 in assay [1] (setting [6]), in assay [1] (setting [5]) and in assay [1] (setting [7]) were 8.32 µM, 6.1 µM and 10.5 µM, respectively.

Regarding `COCCOC(=O)C1=C(C)NC(C)=C(C(=O)OC/C=C/c2ccccc2)C1c1cccc([N+](=O)[O-])c1` (stereo not drawn) [Cilnidipine], the figures for the IC50 in assay [1] (setting [6]), in assay [1] (setting [5]) and in assay [1] (setting [7]) were 21.1 µM, 22.9 µM and 19.3 µM, respectively.

With `c1ccc2c(c1)[I+]c1ccccc1-2` [Diphenyleneiodonium chloride], the IC50 in assay [1] (setting [6]) was 0.43 µM; in assay [1] (setting [5]) it was 0.84 µM; in assay [1] (setting [7]), 0.03 µM.

On to `Nc1ccn([C@@H]2O[C@H](CO)[C@@H](O)C2(F)F)c(=O)n1` [Gemcitabine hydrochloride], for which, in assay [1] (setting [5]), the IC50 is 0.02 µM. The “IC50 (μM) 2” value in assay [1] (determination 2) is “inactive”.

Consider `OB1OCc2cc(/C=C/c3cccc(F)c3)ccc21` [IX, (E)-5-(3-fluorostyryl)benzo[c][1,2]oxaborol-1(3H)-ol], for which, in the assay on SREBP target gene SCD-1 (AN3CA cells), the “Relative mRNA expression of SCD-1” value is 0.72.

`O=C1C(SCCO)=C(SCCO)C(=O)c2ccccc21` [NSC 95397]: the half-maximal inhibitory concentration (IC50) in assay [1] (setting [6]) came to 9.42 µM; in assay [1] (setting [5]) it was 11.2 µM; in assay [1] (setting [7]), 7.68 µM.

As for `C=CCc1cccc(/C=N/NC(=O)CN2CCN(Cc3ccccc3)CC2)c1O` [PAC-1], the IC50 worked out at 21.3 µM in assay [1] (setting [6]), 18.8 µM in assay [1] (setting [5]) and 23.8 µM in assay [1] (setting [7]).

For the compound `CCN(CC)CCOc1ccc(Nc2ncc3cc(-c4c(Cl)cccc4Cl)c(=O)n(C)c3n2)cc1` [PD-166285 hydrate], the DC50 in assay [1] (setting [6]) was found to be 3.03 µM; in assay [1] (setting [5]), 3.33 µM; in assay [1] (setting [7]), 2.73 µM.

With `Oc1ccc(C=Cc2cc(O)cc(O)c2)cc1` [Resveratrol], the DC50 is 18.9 µM in assay [1] (setting [6]), 14.9 µM in assay [1] (setting [5]), 22.9 µM in assay [1] (setting [7]) and 16.7 µM at And-1 [2].

Take `C/C=C(/C)C(=O)O[C@H]1C(C)=C2[C@H]([C@@H]1OC(=O)CCCCCCC)[C@@](C)(OC(C)=O)C[C@H](OC(=O)CCC)[C@@]1(O)[C@H]2OC(=O)[C@@]1(C)O` [Thapsigargin]: the half-maximal inhibitory concentration (IC50) was 6.95 µM in assay [1] (setting [6]), 13.3 µM in assay [1] (setting [5]) and 0.63 µM in assay [1] (setting [7]).

Turning to `CC[C@@]1(O)C(=O)OCc2c1cc1n(c2=O)Cc2cc3c(CN(C)C)c(O)ccc3nc2-1` [Topotecan hydrochloride hydrate], the DC50 in assay [1] (setting [5]) was 0.61 µM. Moreover, the “IC50 (μM) 2” value in assay [1] (determination 2) was “inactive”.

Regarding `OB1OCc2cc(/C=C/c3ccccc3C(F)(F)F)ccc21` [VI, (E)-5-(2-(trifluoromethyl)styryl)benzo[c][1,2]oxaborol-1(3H)-ol], in the assay on SREBP target gene SCD-1 (AN3CA cells), the “Relative mRNA expression of SCD-1” value is listed as 1.03.

As to `OB1OCc2cc(/C=C/c3ccc(C(F)(F)F)cc3)ccc21` [VII, (E)-5-(4-(trifluoromethyl)styryl)benzo[c][1,2]oxaborol-1(3H)-ol], in the assay on SREBP target gene SCD-1 (AN3CA cells), the “Relative mRNA expression of SCD-1” value worked out at 1.07.

For `OB1OCc2cc(/C=C/c3cc(F)cc(C(F)(F)F)c3)ccc21` [V], the “Relative mRNA expression of SCD-1” value in the assay on SREBP target gene SCD-1 (AN3CA cells) is listed as 0.72.

Regarding `OB1OCc2cc(/C=C/c3cccc(Cl)c3)ccc21` [X, (E)-5-(3-chlorostyryl)benzo[c][1,2]oxaborol-1(3H)-ol], in the assay with SREBP target gene SCD-1 (AN3CA cells), the “Relative mRNA expression of SCD-1” value is 0.56. Further, in the assay on SREBP target gene SCD-1 (human endometrial cancer AN3CA cells), the “inhibitory effect on Srebp” value was “high inhibitory effect”. Also, the IC50 is 20.6 µM at And-1 [3] and 19.2 µM against And-1 [4].

Turning to `Cc1cccc(/C=C/c2ccc3c(c2)COB3O)c1` [XI, (E)-5-(3-methylstyryl)benzo[c][1,2]oxaborol-1(3H)-ol], the figures for the half-inhibitory concentration (IC50) against And-1 [3] and against And-1 [4] were 34.3 µM and 32.9 µM, respectively.

`COc1cccc(/C=C/c2ccc3c(c2)COB3O)c1` [XII, (E)-5-(3-methoxystyryl)benzo[c][1,2]oxaborol-1(3H)-ol]: in the assay with SREBP target gene SCD-1 (AN3CA cells), the “Relative mRNA expression of SCD-1” value came out at 0.62. Moreover, the half-inhibitory concentration (IC50) on And-1 [3] turned out to be 37.4 µM; on And-1 [4], 34.1 µM.

For `OB1OCc2cc(/C=C/c3ccccc3)ccc21` [XIII, (E)-5-styrylbenzo[c][1,2]oxaborol-1(3H)-ol], the “Relative mRNA expression of SCD-1” value in the assay on SREBP target gene SCD-1 (AN3CA cells) is given as 0.71. Moreover, the values for the IC50 against And-1 [3] and against And-1 [4] were 45.6 µM and 41 µM, respectively.

For `OB1OCc2cc(Cl)ccc21` [travaborole, reference compound], in the assay with SREBP target gene SCD-1 (AN3CA cells), the “activity of reducing SCD-1 gene expression (in words)” value was “do not have the activity of reducing the expression of SCD-1 gene” and the “Relative mRNA expression of SCD-1” value came out at 1.08.

Values taken from US12258360B2, “Compositions and methods for treatment of anticancer-drug resistant cancers” (THE GEORGE WASHINGTON UNIVERSITY, priority 2020, dated 2025).
